# Earlier results as cited in patent US8133908B2, “Heteroaryl derivatives of N-{[(1S,4S,6S)-3-(2-pyridinylcarbonyl)-3-azabicyclo[4.1.0]hept-4-yl]methyl}-2-amine” (Glaxo Group Limited, priority 2008, dated 2012).
# No end group written: not given here.
# Tests used:
# orexin receptor = conditions: rats
# orexin-A receptor(s) = conditions: central administration, freely-feeding rats, 4 hour time period
# orexin receptors = conditions: rats, central administration at the onset of the normal sleep period
Molecule,hedonic eating (orexin receptor),high-fat pellet self-administration (orexin receptor),increase of food intake over control rats receiving vehicle (orexin-A receptor(s)),arousal (orexin receptors)
Cc1nc2ccc(NC(=O)Nc3ccnc4cccnc34)cc2o1 [SB334867],potently reduced,attenuated,–,–
"orexin-A: ligand for the orexin-1 receptor; an agonist of the orexin receptors (QPLPDCCRQKTCSCRLYELLHGAGNHAAGILTL; ends and bridges not checked; cysteine pairing not given here; UniProt O43612 34-66, looked up)",–,–,approximately four-fold,dose-related increase in arousal
